In patent publication US11806351B2, “Use of coenzyme factor for activation of ATP production in cell” (TERA STONE Co., Ltd, priority 2018, dated 2023):

System: hippocampal neurons
Assay: number of branches of hippocampal neuron dendrite, Specimens 5 to 11
Type: cell-based, ICR mouse
Details: 0.3 μM added once on culture day 1; MAP2 antibody culture day 4
Protocol: Hippocampal neurons were collected from the juvenile (Day 0 after birth) ICR mouse brain and cultured on a culture dish.
Each specimen was added once to the cells in the initial growth stage (on culture day 1); the resulting cells were immunostained with a MAP2 antibody three days later (on culture day 4), and the number of branches of the dendrite was quantified.
The measurement was performed by drawing 20 μm to 100 μm concentric circles (not shown) at an interval of 10 μm with a soma as a center and counting the number of dendrites crossing the circles.
A line graph of the number of dendrite crossings counted for each distance from the soma was drawn and a Student's t-test, paired (t-test, two tailed distribution) was carried out using an area under the line graph (Area under the Curve: AUC).
When the number of cases of a specimen was sufficient, the test was performed while eliminating the maximum and minimum values. The concentrations of the specimens to be added were each 0.3 μM.

Which “number of branches of hippocampal neuron dendrite (AUC of dendrite crossings, t-test vs control)” value does the source give for `CCn1c2nc(=O)n(C)c(=O)c-2cc2c(=O)n(C)c(=O)[nH]c21` [Specimen 5] here?
The value was “an effect on dendrite elongation is recognized”.

Which “number of branches of hippocampal neuron dendrite (AUC of dendrite crossings, t-test vs control)” value does the source give for `O=c1nc2n(-c3ccc(Cl)cc3)c3[nH]c(=O)n(-c4ccccc4)c(=O)c3cc-2c(=O)n1-c1ccccc1` [Specimen 6] here?
Its value is “an effect on dendrite elongation is recognized”.

Which “number of branches of hippocampal neuron dendrite (AUC of dendrite crossings, t-test vs control)” value does the source give for `Cn1c2nc(=O)n(C)c(=O)c-2cc2c1C=C1CCC3C(CCC4(C)C(O)CCC34)C1(C)C2` (stereo not shown) [Specimen 7] here?
Its value is “a statistically significant difference is recognized (p<0.05)”.

Which “number of branches of hippocampal neuron dendrite (AUC of dendrite crossings, t-test vs control)” value does the source give for `CCn1c2nc(=O)n(-c3ccccc3)c(=O)c-2cc2c1C=C1CCC3C(CCC4(C)C(O)CCC34)C1(C)C2` (stereo not drawn) [Specimen 8, 5′-Deaza-8′-ethyl-17β-hydroxy-3′-phenylandrost-2,4-dieno[2,3-g]pteridine-2′,4′(3′H, 8′H)-dione] here?
Its value is “an effect on dendrite elongation is recognized”.

For `CC(C)CCCC(C)C1CCC2C3CCC4=Cc5c(cc6c(=O)n(C)c(=O)nc-6n5C)CC4(C)C3CCC12C` (stereo not shown) [Specimen 9], which “number of branches of hippocampal neuron dendrite (AUC of dendrite crossings, t-test vs control)” value is on record?
Its value is “an effect on dendrite elongation is recognized”.

For `Cc1ccc(-n2c3nc(=O)n(C)c(=O)c-3cc3c2C=C2CCC4C(CCC5(C)C(C(C)CCCC(C)C)CCC45)C2(C)C3)cc1C` (stereo not shown) [Specimen 10], which “number of branches of hippocampal neuron dendrite (AUC of dendrite crossings, t-test vs control)” value is on record?
The value was “an effect on dendrite elongation is recognized”.

For `Cc1ccc(-n2c3nc(=O)n(-c4ccccc4)c(=O)c-3cc3c2C=C2CCC4C(CCC5(C)C(C(C)CCCC(C)C)CCC45)C2(C)C3)cc1C` (stereo not shown) [Specimen 11], which “number of branches of hippocampal neuron dendrite (AUC of dendrite crossings, t-test vs control)” value is on record?
Its value is “a statistically significant difference is recognized (p<0.05)”.

System: not given
Assay: not given
Details: not given

For `CCCCn1c2nc(=O)n(-c3ccccc3)c(=O)c-2cc2c1C=C1CC[C@H]3[C@@H]4CC[C@H](O)[C@@]4(C)CC[C@@H]3[C@@]1(C)C2`, which melting point is on record?
Its melting point is 200 °C.

With `C[C@]12CC[C@H]3[C@@H](CCC4=Cc5c(cc6c(=O)n(-c7ccccc7)c(=O)nc-6n5Cc5ccccc5)C[C@@]43C)[C@@H]1CC[C@@H]2O` as the compound, how does the melting point read?
Its melting point is 224 °C.

For `C[C@]12CC[C@H]3[C@@H](CCC4=Cc5c(cc6c(=O)n(-c7ccccc7)c(=O)nc-6n5-c5ccccc5)C[C@@]43C)[C@@H]1CC[C@@H]2O`, which melting point is on record?
Its melting point is 257 °C.

Which melting point does the source give for `CCn1c2nc(=O)n(C)c(=O)c-2cc2c1C=C1CC[C@H]3[C@@H]4CC[C@H](O)[C@@]4(C)CC[C@@H]3[C@@]1(C)C2` here?
Its melting point is 260 °C (dec.).

For `Cn1c(=O)nc2n(Cc3ccccc3)c3c(cc-2c1=O)C[C@@]1(C)C(=C3)CC[C@H]2[C@@H]3CC[C@H](O)[C@@]3(C)CC[C@@H]21`, which melting point is on record?
Its melting point is 215 °C.

For `Cn1c(=O)nc2n(-c3ccccc3)c3c(cc-2c1=O)C[C@@]1(C)C(=C3)CC[C@H]2[C@@H]3CC[C@H](O)[C@@]3(C)CC[C@@H]21`, which melting point is on record?
Its melting point is 215 °C (dec.).
